± gives the expanded uncertainty stated by the source.
Assay: xn = mol fraction of the nth substance listed
Settings: Gas; for viscosity: Oscillating disk viscometry; for mass density: Pycnometric method

CC(F)(F)Cl [1-chloro-1,1-difluoroethane] + FC(F)Cl
Settings	mass density [kg/m3]	viscosity [mPa·s]
373.15 K, 2604 kPa, x2 = 0.7502	99.88 ± 0.24	0.01618 ± 0.00053
373.15 K, 2789 kPa, x2 = 0.7502	110.3 ± 0.3	0.01638 ± 0.00054
373.15 K, 2988 kPa, x2 = 0.7502	121.8 ± 0.3	0.01665 ± 0.00054
398.15 K, 100.6 kPa, x2 = 0.7502	2.753 ± 0.25	0.01605 ± 0.00053
398.15 K, 101.6 kPa, x2 = 0.2615	2.997 ± 0.25	0.01472 ± 0.0005
398.15 K, 101.8 kPa, x2 = 0.5169	2.886 ± 0.25	0.01547 ± 0.00051
398.15 K, 102 kPa, x2 = 0.2615	3.006 ± 0.25	0.0147 ± 0.0005
398.15 K, 278.9 kPa, x2 = 0.2615	8.354 ± 0.26	0.01475 ± 0.0005
398.15 K, 345.7 kPa, x2 = 0.5169	9.975 ± 0.26	0.01548 ± 0.00051
398.15 K, 404.8 kPa, x2 = 0.7502	11.29 ± 0.26	0.01605 ± 0.00053
398.15 K, 468 kPa, x2 = 0.2615	14.28 ± 0.26	0.01477 ± 0.0005
398.15 K, 591.5 kPa, x2 = 0.5169	17.39 ± 0.26	0.01553 ± 0.00052
398.15 K, 654.1 kPa, x2 = 0.2615	20.27 ± 0.26	0.01482 ± 0.0005
398.15 K, 779.9 kPa, x2 = 0.7502	22.29 ± 0.26	0.01612 ± 0.00053
398.15 K, 834.7 kPa, x2 = 0.5169	25.01 ± 0.26	0.01557 ± 0.00052
398.15 K, 908.9 kPa, x2 = 0.2615	28.88 ± 0.26	0.01485 ± 0.0005
398.15 K, 1036 kPa, x2 = 0.7502	30.15 ± 0.26	0.01619 ± 0.00053
398.15 K, 1081 kPa, x2 = 0.5169	33.05 ± 0.26	0.01562 ± 0.00052
398.15 K, 1153 kPa, x2 = 0.2615	37.53 ± 0.26	0.01493 ± 0.0005
398.15 K, 1326 kPa, x2 = 0.5169	41.4 ± 0.26	0.01572 ± 0.00052
398.15 K, 1374 kPa, x2 = 0.7502	40.98 ± 0.26	0.01628 ± 0.00053
398.15 K, 1397 kPa, x2 = 0.2615	46.73 ± 0.26	0.01504 ± 0.0005
398.15 K, 1569 kPa, x2 = 0.5169	50.2 ± 0.26	0.01584 ± 0.00052
398.15 K, 1608 kPa, x2 = 0.2615	55.16 ± 0.26	0.0151 ± 0.00051
398.15 K, 1667 kPa, x2 = 0.7502	50.88 ± 0.26	0.01642 ± 0.00054
398.15 K, 1821 kPa, x2 = 0.2615	63.97 ± 0.27	0.01525 ± 0.00051
398.15 K, 1824 kPa, x2 = 0.5169	59.84 ± 0.27	0.01596 ± 0.00053
398.15 K, 2016 kPa, x2 = 0.7502	63.22 ± 0.27	0.01657 ± 0.00054
398.15 K, 2031 kPa, x2 = 0.2615	73.54 ± 0.27	0.01542 ± 0.00051
398.15 K, 2121 kPa, x2 = 0.5169	71.87 ± 0.27	0.01616 ± 0.00053
398.15 K, 2251 kPa, x2 = 0.2615	84.17 ± 0.27	0.0156 ± 0.00052
398.15 K, 2376 kPa, x2 = 0.5169	82.87 ± 0.27	0.01632 ± 0.00053
398.15 K, 2376 kPa, x2 = 0.7502	77.16 ± 0.27	0.01679 ± 0.00055
398.15 K, 2442 kPa, x2 = 0.2615	94.09 ± 0.27	0.01576 ± 0.00052
398.15 K, 2634 kPa, x2 = 0.5169	94.96 ± 0.27	0.01655 ± 0.00054
398.15 K, 2637 kPa, x2 = 0.2615	105.1 ± 0.3	0.01598 ± 0.00053
398.15 K, 2813 kPa, x2 = 0.7502	95.48 ± 0.27	0.01711 ± 0.00055
398.15 K, 2835 kPa, x2 = 0.2615	117.2 ± 0.3	0.01629 ± 0.00053
398.15 K, 2884 kPa, x2 = 0.5169	107.4 ± 0.3	0.0168 ± 0.00055
398.15 K, 3101 kPa, x2 = 0.2615	136 ± 0.3	0.01673 ± 0.00054
398.15 K, 3115 kPa, x2 = 0.7502	109.3 ± 0.3	0.01741 ± 0.00056
398.15 K, 3195 kPa, x2 = 0.5169	124.9 ± 0.3	0.01716 ± 0.00055
398.15 K, 3322 kPa, x2 = 0.2615	154.3 ± 0.3	0.01724 ± 0.00056
398.15 K, 3403 kPa, x2 = 0.7502	128.5 ± 0.3	0.01784 ± 0.00057
398.15 K, 3432 kPa, x2 = 0.5169	139.6 ± 0.3	0.01752 ± 0.00056
398.15 K, 3481 kPa, x2 = 0.2615	170.2 ± 0.3	0.01773 ± 0.00057
398.15 K, 3698 kPa, x2 = 0.2615	196.3 ± 0.3	0.01858 ± 0.00059
398.15 K, 3714 kPa, x2 = 0.5169	159.3 ± 0.3	0.01808 ± 0.00058
398.15 K, 3825 kPa, x2 = 0.7502	146.7 ± 0.3	0.01827 ± 0.00058
398.15 K, 3854 kPa, x2 = 0.2615	222.4 ± 0.4	0.01953 ± 0.00061
398.15 K, 3961 kPa, x2 = 0.5169	179.5 ± 0.3	0.01865 ± 0.00059
398.15 K, 3998 kPa, x2 = 0.2615	261.2 ± 0.4	0.02101 ± 0.00064
398.15 K, 4086 kPa, x2 = 0.7502	162.7 ± 0.3	0.01865 ± 0.00059
398.15 K, 4222 kPa, x2 = 0.5169	204.9 ± 0.3	0.01952 ± 0.00061
398.15 K, 4343 kPa, x2 = 0.7502	180.2 ± 0.3	0.01918 ± 0.0006
398.15 K, 4446 kPa, x2 = 0.5169	231.6 ± 0.3	0.02048 ± 0.00063
398.15 K, 4642 kPa, x2 = 0.7502	203.6 ± 0.3	0.01991 ± 0.00062
398.15 K, 4840 kPa, x2 = 0.7502	218.9 ± 0.3	0.0205 ± 0.00063
423.15 K, 101.1 kPa, x2 = 0.7502	2.597 ± 0.29	0.01682 ± 0.00055

Reference: the NIST ThermoML archive (doi:10.1007/s10765-009-0579-1)
